According to PubChem BioAssay AID1259407 (Chemical Carcinogenesis Research Information System (CCRIS), 2018):
Activity calls are given as the source filed them. No rule for the calls is given here.

Test system: CCRIS mutagenicity, Ames/micronucleus/aberration tests
Assay: CCRIS mutagenicity studies
[1] = Test System: AMES SALMONELLA TYPHIMURIUM, Strain/Indicator: TA98, Metabolic Activation: NONE, Method: PREINCUBATION
[2] = Test System: AMES SALMONELLA TYPHIMURIUM, Strain/Indicator: TA100, Metabolic Activation: NONE, Method: PREINCUBATION
[3] = Test System: AMES SALMONELLA TYPHIMURIUM, Strain/Indicator: TA1535, Metabolic Activation: NONE, Method: PREINCUBATION
[4] = Test System: AMES SALMONELLA TYPHIMURIUM, Strain/Indicator: TA1537, Metabolic Activation: NONE, Method: PREINCUBATION

Compound: CCCCCCCCCCCCCCCCCC(=O)NCCNC(=O)CCCCCCCCCCCCCCCCC
- mutagenic call [1]: inactive; negative
- mutagenic call (Test System: AMES SALMONELLA TYPHIMURIUM, Strain/Indicator: TA98, Metabolic Activation: RAT LIVER S-9, PHENOBARBITAL AND BETA-NAPHTHOFLAVONE, Method: PREINCUBATION): inactive; negative
- mutagenic call (Test System: AMES SALMONELLA TYPHIMURIUM, Strain/Indicator: TA98, Metabolic Activation: RAT, LIVER, S-9, KC 500, Method: PREINCUBATION): inactive; negative
- mutagenic call [2]: inactive; negative
- mutagenic call (Test System: AMES SALMONELLA TYPHIMURIUM, Strain/Indicator: TA100, Metabolic Activation: RAT LIVER S-9, PHENOBARBITAL AND BETA-NAPHTHOFLAVONE, Method: PREINCUBATION): inactive; negative
- mutagenic call (Test System: AMES SALMONELLA TYPHIMURIUM, Strain/Indicator: TA100, Metabolic Activation: RAT, LIVER, S-9, KC 500, Method: PREINCUBATION): inactive; negative
- mutagenic call [3]: inactive; negative
- mutagenic call (Test System: AMES SALMONELLA TYPHIMURIUM, Strain/Indicator: TA1535, Metabolic Activation: RAT LIVER S-9, PHENOBARBITAL AND BETA-NAPHTHOFLAVONE, Method: PREINCUBATION): inactive; negative
- mutagenic call (Test System: AMES SALMONELLA TYPHIMURIUM, Strain/Indicator: TA1535, Metabolic Activation: RAT, LIVER, S-9, KC 500, Method: PREINCUBATION): inactive; negative
- mutagenic call [4]: inactive; negative
- mutagenic call (Test System: AMES SALMONELLA TYPHIMURIUM, Strain/Indicator: TA1537, Metabolic Activation: RAT LIVER S-9, PHENOBARBITAL AND BETA-NAPHTHOFLAVONE, Method: PREINCUBATION): inactive; negative
- mutagenic call (Test System: AMES SALMONELLA TYPHIMURIUM, Strain/Indicator: TA1537, Metabolic Activation: RAT, LIVER, S-9, KC 500, Method: PREINCUBATION): inactive; negative
- mutagenic call (Test System: AMES SALMONELLA TYPHIMURIUM, Strain/Indicator: TA1538, Metabolic Activation: NONE, Method: PREINCUBATION): inactive; negative
- mutagenic call (Test System: AMES SALMONELLA TYPHIMURIUM, Strain/Indicator: TA1538, Metabolic Activation: RAT, LIVER, S-9, KC 500, Method: PREINCUBATION): inactive; negative
- mutagenic call (Test System: E. COLI, Strain/Indicator: WP2 UVRA, Metabolic Activation: NONE, Method: PREINCUBATION): inactive; negative
- mutagenic call (Test System: E. COLI, Strain/Indicator: WP2 UVRA, Metabolic Activation: RAT, LIVER, S-9, KC 500, Method: PREINCUBATION): inactive; negative
- mutagenic call (Test System: E.COLI, Strain/Indicator: WP2UVRA/PKM101, Metabolic Activation: NONE, Method: PREINCUBATION): inactive; negative
- mutagenic call (Test System: E.COLI, Strain/Indicator: WP2UVRA/PKM101, Metabolic Activation: RAT LIVER S-9, PHENOBARBITAL AND BETA-NAPHTHOFLAVONE, Method: PREINCUBATION): inactive; negative

Compound: NC(Cc1ccc(F)cc1)C(=O)O (configuration not stated)
- mutagenic call (Test System: AMES SALMONELLA TYPHIMURIUM, Strain/Indicator: TA98, Metabolic Activation: HAMSTER, LIVER, S-9, AROCLOR 1254 (10%), Method: PREINCUBATION): inactive; negative
- mutagenic call [1]: inactive; negative
- mutagenic call (Test System: AMES SALMONELLA TYPHIMURIUM, Strain/Indicator: TA98, Metabolic Activation: RAT, LIVER, S-9, AROCLOR 1254 (10%), Method: PREINCUBATION): inactive; negative
- mutagenic call (Test System: AMES SALMONELLA TYPHIMURIUM, Strain/Indicator: TA100, Metabolic Activation: HAMSTER, LIVER, S-9, AROCLOR 1254 (10%), Method: PREINCUBATION): inactive; negative
- mutagenic call [2]: inactive; negative
- mutagenic call (Test System: AMES SALMONELLA TYPHIMURIUM, Strain/Indicator: TA100, Metabolic Activation: RAT, LIVER, S-9, AROCLOR 1254 (10%), Method: PREINCUBATION): inactive; negative
- mutagenic call (Test System: AMES SALMONELLA TYPHIMURIUM, Strain/Indicator: TA1535, Metabolic Activation: HAMSTER, LIVER, S-9, AROCLOR 1254 (10%), Method: PREINCUBATION): inactive; negative
- mutagenic call [3]: inactive; negative
- mutagenic call (Test System: AMES SALMONELLA TYPHIMURIUM, Strain/Indicator: TA1535, Metabolic Activation: RAT, LIVER, S-9, AROCLOR 1254 (10%), Method: PREINCUBATION): inactive; negative
- mutagenic call (Test System: AMES SALMONELLA TYPHIMURIUM, Strain/Indicator: TA1537, Metabolic Activation: HAMSTER, LIVER, S-9, AROCLOR 1254 (10%), Method: PREINCUBATION): inactive; negative
- mutagenic call [4]: inactive; negative
- mutagenic call (Test System: AMES SALMONELLA TYPHIMURIUM, Strain/Indicator: TA1537, Metabolic Activation: RAT, LIVER, S-9, AROCLOR 1254 (10%), Method: PREINCUBATION): inactive; negative

Compound: CCN(CCCl)CCCNc1c2ccc(Cl)cc2nc2ccc(OC)cc12
- mutagenic call (Test System: AMES SALMONELLA TYPHIMURIUM, Strain/Indicator: TA98, Metabolic Activation: NONE, Method: STANDARD PLATE): active; positive
- mutagenic call (Test System: AMES SALMONELLA TYPHIMURIUM, Strain/Indicator: TA100, Metabolic Activation: NONE, Method: STANDARD PLATE): active; positive
- mutagenic call (Test System: AMES SALMONELLA TYPHIMURIUM, Strain/Indicator: TA1535, Metabolic Activation: NONE, Method: STANDARD PLATE): inactive; negative
- mutagenic call (Test System: AMES SALMONELLA TYPHIMURIUM, Strain/Indicator: TA1536, Metabolic Activation: NONE, Method: STANDARD PLATE): active; positive
- mutagenic call (Test System: AMES SALMONELLA TYPHIMURIUM, Strain/Indicator: TA1537, Metabolic Activation: NONE, Method: STANDARD PLATE): active; positive
- mutagenic call (Test System: AMES SALMONELLA TYPHIMURIUM, Strain/Indicator: TA1538, Metabolic Activation: NONE, Method: STANDARD PLATE): active; positive
- mutagenic call (Test System: CHINESE HAMSTER OVARY, Strain/Indicator: CHO-K1-BH4 (HGPRT)/6-THIOGUANINE, Metabolic Activation: NONE, Method: SUSPENSION/PLATE): active; positive
- mutagenic call (Test System: CHINESE HAMSTER OVARY, Strain/Indicator: CHO-K1-BH4 (HGPRT), Metabolic Activation: NONE, Method: MONOLAYER ASSAY): active; positive
- mutagenic call (Test System: CHINESE HAMSTER OVARY, Strain/Indicator: CHO-K1-BH4 (HGPRT), Metabolic Activation: NONE, Method: SUSPENSION/PLATE): active; positive
- mutagenic call (Test System: CHINESE HAMSTER V-79, Strain/Indicator: V-79/6-THIOGUANINE, Metabolic Activation: NONE, Method: FLASK ASSAY): active; positive
- mutagenic call (Test System: CHINESE HAMSTER V-79, Strain/Indicator: V-79/8-AZAGUANINE, Metabolic Activation: NONE, Method: STANDARD PLATE): active; positive
- mutagenic call (Test System: CHO/HGPRT, Strain/Indicator: CHO-K1-BH4, Metabolic Activation: NONE, Method: STANDARD PLATE): active; positive
- mutagenic call (Test System: MOUSE LYMPHOMA, Strain/Indicator: L5178Y (TK+/TK-), Metabolic Activation: NONE, Method: SUSPENSION/PLATE): active; positive
- mutagenic call (Test System: Mouse lymphoma, Strain/Indicator: L5178Y (tk+/tk-), Metabolic Activation: None, Method: Suspension/plate): active; positive
- mutagenic call (Test System: Mouse lymphoma, Strain/Indicator: L5178Y (tk+/tk-), Metabolic Activation: Rat, Liver, S-9, Aroclor 1254, Method: Suspension/plate): inconclusive (previous evaluation equivocal)

Compound: CCCCN(CC)CC
- mutagenic call (Test System: AMES SALMONELLA TYPHIMURIUM, Strain/Indicator: TA97, Metabolic Activation: HAMSTER, LIVER, S-9, AROCLOR 1254 (10 OR 30%), Method: PREINCUBATION): inactive; negative
- mutagenic call (Test System: AMES SALMONELLA TYPHIMURIUM, Strain/Indicator: TA97, Metabolic Activation: NONE, Method: PREINCUBATION): inactive; negative
- mutagenic call (Test System: AMES SALMONELLA TYPHIMURIUM, Strain/Indicator: TA97, Metabolic Activation: RAT, LIVER, S-9, AROCLOR 1254 (10 OR 30%), Method: PREINCUBATION): inactive; negative
- mutagenic call (Test System: AMES SALMONELLA TYPHIMURIUM, Strain/Indicator: TA98, Metabolic Activation: HAMSTER, LIVER, S-9, AROCLOR 1254 (10 OR 30%), Method: PREINCUBATION): inactive; negative
- mutagenic call [1]: inactive; negative
- mutagenic call (Test System: AMES SALMONELLA TYPHIMURIUM, Strain/Indicator: TA98, Metabolic Activation: RAT, LIVER, S-9, AROCLOR 1254 (10 OR 30%), Method: PREINCUBATION): inactive; negative
- mutagenic call (Test System: AMES SALMONELLA TYPHIMURIUM, Strain/Indicator: TA100, Metabolic Activation: HAMSTER, LIVER, S-9, AROCLOR 1254 (10 OR 30%), Method: PREINCUBATION): inactive; negative
- mutagenic call [2]: inactive; negative
- mutagenic call (Test System: AMES SALMONELLA TYPHIMURIUM, Strain/Indicator: TA100, Metabolic Activation: RAT, LIVER, S-9, AROCLOR 1254 (10 OR 30%), Method: PREINCUBATION): inactive; negative
- mutagenic call (Test System: AMES SALMONELLA TYPHIMURIUM, Strain/Indicator: TA1535, Metabolic Activation: HAMSTER, LIVER, S-9, AROCLOR 1254 (10 OR 30%), Method: PREINCUBATION): inactive; negative
- mutagenic call [3]: inactive; negative
- mutagenic call (Test System: AMES SALMONELLA TYPHIMURIUM, Strain/Indicator: TA1535, Metabolic Activation: RAT, LIVER, S-9, AROCLOR 1254 (10 OR 30%), Method: PREINCUBATION): inactive; negative
